Assay results: US20180055844A1 (Celgene Corporation, priority 2011, published 2018)
Like-named read-outs stand apart in the source and are kept apart here.

Legend:
[1] = test system: NCI-H929 MM xenograft; experiment: NCI-H929 MM xenograft model; format: in vivo; settings: day 19
[2] = test system: H929 myeloma cells; experiment: Cell cycle in siRNA-transfected H929 cells; format: cell-based; settings: 72 h treatment
Protocol: Cells were treated with DMSO or an amount of a compound provided herein for 48 hours. Propidium iodide staining for cell cycle was performed using CycleTEST PLUS (Becton Dickinson) according to manufacturer's protocol. Following staining, cells were analyzed by a FACSCalibur flow cytometer using ModFit LT software (Becton Dickinson).
The effect of cereblon in H929 myeloma cells was also evaluated. H929 cells were transfected with mock, negative control siRNA and CRBN-siRNA-7 for 24, 48, 72 and 96 hours.

[3] = test system: WSU-DLCL2 xenograft; experiment: WSU-DLCL2 xenograft model; format: in vivo; settings: combination with Rituxan (2 mg/kg iv qw)
[4] = test system: MDA-MB-453; experiment: Solid tumor cell colony formation; format: cell-based; settings: Homo sapiens
[5] = test system: U251; experiment: Invasion of solid tumor cells; format: cell-based; settings: Homo sapiens, U-251; U251 (PDGF), glioblastoma
[6] = Pharmacokinetics in monkeys on Day 1 and Day 27; settings: monkey, in vivo; for AUC(0-t): read-out: AUC0-24
[7] = test system: megakaryocyte progenitor cells; experiment: MK colonies (megakaryocyte progenitor cells); format: cell-based
[8] = test system: lipopolysaccharide-stimulated human peripheral blood mononuclear cells (hPBMCs); experiment: PBMC cytokine profiling; format: cell-based; settings: for IC50: LPS-stimulated hPBMC
[9] = test system: DLBCL cell lines; experiment: In vitro DLBCL cell thymidine incorporation assay (panel); format: cell-based; settings: 5 days, 3H-thymidine incorporation
Excerpt: (§1) Results of 3 independent experiments are shown (mean±SD) in FIG. 2. […] ABC-subtype cells appear more sensitive to the antiproliferative effect than other subtype cells including GCB-DLBCL and PMBL cells.

[10] = test system: MCF-7; experiment: Solid tumor cell colony formation; format: cell-based; settings: Homo sapiens, MCF7
[11] = test system: Colo-205; experiment: Solid tumor cell colony formation; format: cell-based; settings: Homo sapiens
[12] = test system: pRb, IRF4; experiment: Western blot of cell cycle regulators in H929 cells; format: cell-based
[13] = test system: U251; experiment: Solid tumor cell colony formation; format: cell-based; settings: Homo sapiens, U-251
[14] = test system: HCT116; experiment: Solid tumor cell colony formation; format: cell-based; settings: Homo sapiens, HCT-116
[15] = test system: PC-3; experiment: Solid tumor cell colony formation; format: cell-based; settings: Homo sapiens
[16] = test system: OVCAR-3; experiment: Solid tumor cell colony formation; format: cell-based; settings: Homo sapiens
[17] = test system: HCT15; experiment: Invasion of solid tumor cells; format: cell-based
[18] = test system: SF-295; experiment: Invasion of solid tumor cells; format: cell-based; settings: Homo sapiens; SF-295 (PDGF), glioblastoma
[19] = test system: OCI-Ly19; experiment: 5 day 3H thymidine incorporation assay; format: cell-based; settings: Homo sapiens; OCI-Ly19, GCB subtype
Excerpt: as §1

[20] = test system: U2932; experiment: 5 day 3H thymidine incorporation assay; format: cell-based; settings: Homo sapiens; U2932, ABC subtype
Excerpt: as §1

[21] = test system: WSU-DLCL2; experiment: 5 day 3H thymidine incorporation assay; format: cell-based; settings: Homo sapiens, WSUDLCL2; WSU-DLCL2, GCB subtype
Excerpt: as §1

[22] = test system: TMD8; experiment: 5 day 3H thymidine incorporation assay; format: cell-based; settings: Homo sapiens; TMD8, ABC subtype
Excerpt: as §1

[23] = test system: OCI-Ly10; experiment: 5 day 3H thymidine incorporation assay; format: cell-based; settings: Homo sapiens; OCI-Ly10, ABC subtype
Excerpt: as §1

[24] = test system: RIVA; experiment: 5 day 3H thymidine incorporation assay; format: cell-based; settings: ABC subtype
Excerpt: as §1

[25] = test system: Karpas-1106P; experiment: 5 day 3H thymidine incorporation assay; format: cell-based; settings: Homo sapiens, PMBL
Excerpt: as §1

[26] = test system: SUDHL4; experiment: 5 day 3H thymidine incorporation assay; format: cell-based; settings: Homo sapiens, SU-DHL-4; SUDHL4, GCB subtype
Excerpt: as §1

[27] = test system: SNB-19; experiment: Invasion of solid tumor cells; format: cell-based; settings: Homo sapiens; SNB-19 (PDGF), glioblastoma
[28] = female, 0.15 mg/kg, Day 1, 0.15 mg/kg, female
[29] = female, 0.15 mg/kg, Day 27, 0.15 mg/kg, female
[30] = female, 1.5 mg/kg, Day 1, 1.5 mg/kg, female
[31] = female, 1.5 mg/kg, Day 27, 1.5 mg/kg, female
[32] = female, 15 mg/kg, Day 1, 15 mg/kg, female
[33] = female, 15 mg/kg, Day 27, 15 mg/kg, female
[34] = male, 0.15 mg/kg, Day 1, 0.15 mg/kg, male
[35] = male, 0.15 mg/kg, Day 27, 0.15 mg/kg, male
[36] = male, 1.5 mg/kg, Day 1, 1.5 mg/kg, male
[37] = male, 1.5 mg/kg, Day 27, 1.5 mg/kg, male
[38] = male, 15 mg/kg, Day 1, 15 mg/kg, male
[39] = male, 15 mg/kg, Day 27, 15 mg/kg, male

`Cc1nc2cccc(N)c2c(=O)n1C1CCC(=O)NC1=O` (stereo not drawn) [compound of Formula I, 3-(5-amino-2-methyl-4-oxo-4H-quinazolin-3-yl)-piperidine-2,6-dione] gave a tumor growth inhibition ([1]; 0.3 mg/kg) of 59%, a tumor growth inhibition ([1]; 3 mg/kg) of 73% and a tumor growth inhibition ([1]; 30 mg/kg) of 93%. The “drug-induced delay in cell cycle progression (decrease of the number of cells in S phase)” value ([2]; H929, control (before CRBN knockdown)) was 65%, the “drug-induced delay in cell cycle progression (decrease of the number of cells in S phase)” value ([2]; H929, knockdown of CRBN) was 22% and the “complete regressions (tumor volume<25 mm^3)” value ([3]; 3 mg) was 60%. The “complete regressions (tumor volume<25 mm^3)” value ([3]; 30 mg) was 90%, the inhibition at 10 µM [4] was -7% and the IC50 [5] was 3700 nM. The Cmax [6, 28] was 63 ng/mL, the Tmax [6, 28] was 2 h and the AUC(0-t) [6, 28] was 450 ng·h/mL. It also gave a Cmax [6, 29] of 57 ng/mL, a Tmax [6, 29] of 2 to 4 h and an AUC(0-t) [6, 29] of 450 ng·h/mL. For the same compound, the Cmax [6, 30] was 680 ng/mL, the Tmax [6, 30] was 2 h and the AUC(0-t) [6, 30] was 4100 ng·h/mL. For the same compound, the Cmax [6, 31] was 590 ng/mL, the Tmax [6, 31] was 0.5 to 2 h and the AUC(0-t) [6, 31] was 4200 ng·h/mL. It also gave a Cmax [6, 32] of 4200 ng/mL, a Tmax [6, 32] of 2 to 4 h and an AUC(0-t) [6, 32] of 38000 ng·h/mL. It also gave a Cmax [6, 33] of 7000 ng/mL, a Tmax [6, 33] of 4 h and an AUC(0-t) [6, 33] of 75000 ng·h/mL. It also gave a Cmax [6, 34] of 36 ng/mL, a Tmax [6, 34] of 2 to 4 h and an AUC(0-t) [6, 34] of 430 ng·h/mL. The Cmax [6, 35] was 53 ng/mL, the Tmax [6, 35] was 4 h and the AUC(0-t) [6, 35] was 570 ng·h/mL. It also gave a Cmax [6, 36] of 510 ng/mL, a Tmax [6, 36] of 2 to 4 h and an AUC(0-t) [6, 36] of 4600 ng·h/mL. It also gave a Cmax [6, 37] of 560 ng/mL, a Tmax [6, 37] of 2 h and an AUC(0-t) [6, 37] of 5700 ng·h/mL. It also gave a Cmax [6, 38] of 4100 ng/mL, a Tmax [6, 38] of 4 h and an AUC(0-t) [6, 38] of 51000 ng·h/mL. It also gave a Cmax [6, 39] of 5800 ng/mL, a Tmax [6, 39] of 2 to 4 h and an AUC(0-t) [6, 39] of 72000 ng·h/mL. The “inhibition of megakaryocyte progenitor cells” value ([7]; 10 μM) was “did not inhibit”, the IC50 ([7]; read-out: Immature MK colonies IC50) was > 10000 nM and the IC50 ([7]; read-out: Intermediate MK colonies IC50) was > 10000 nM. The activity at 0.1 µM ([8]; read-out: IL-10 production, mean percent of control) was 480%, the activity at 0.1 µM ([8]; read-out: MCP-1 production, mean percent of control) was 236% and the activity at 0.1 µM ([8]; read-out: RANTES production, mean percent of control) was 131%. The IC50 ([8]; read-out: IL-8 production IC50) was > 10000 nM, the IC50 ([8]; read-out: MIP-1α production IC50) was 300 nM and the IC50 ([8]; read-out: MIP-1β production IC50) was > 10000 nM. For the same compound, the “concentration starting at which proliferation of several lines of DLBCL cells was significantly (p<0.05) inhibited” value [9] was 0.1 to 1 µM, the inhibition at 10 µM [10] was 1.4% and the inhibition at 10 µM [11] was 17%. For the same compound, the “phosphorylation of pRB” value [12] was “decreased”, the “total level of protein IRF4” value [12] was “decreased” and the inhibition at 10 µM [13] was -6%. For the same compound, the inhibition at 10 µM [14] was 13%, the inhibition at 10 µM [15] was 14.8% and the inhibition at 10 µM [16] was 18%. The IC50 ([17]; Homo sapiens, HCT-15, HCT15 (bFGF), colorectal) was 7.2 nM, the “ability to inhibit invasion of HCT-15 cells” value ([17]; with siCRBN) was “reduced” and the IC50 [18] was 240 nM. The IC50 [19] was > 10000 nM, the IC50 [20] was 110 to 120 nM and the IC50 [21] was 790 to 2100 nM. It also gave an IC50 [22] of 440 nM, an IC50 [23] of 8.5 nM and an IC50 [24] of 4300 nM. The IC50 [25] was 580 to 710 nM, the IC50 [26] was > 10000 nM and the IC50 [27] was 160 nM.
